The values that follow are results of earlier work, collected in patent US9861098B2, “Method for producing agrichemical-containing resin composition” (Nippon Soda Co., Ltd., priority 2008, dated 2018).

For one series the following is noted: 20° C.
For `COP(=O)(NC(C)=O)SC` (stereo not drawn) [acephate], the water solubility is 790000 ppm.

Regarding `CNC(=O)Oc1cccc2c1OC(C)(C)O2` [bendiocarb], the water solubility is reported as 280 ppm.

Regarding `CN/C(=N\[N+](=O)[O-])NCc1cnc(Cl)s1` [clothianidin], the water solubility was 327 ppm.

Take `CCSCc1ccccc1OC(=O)NC` [ethiofencarb]: the water solubility is given as 1800 ppm.

Take `CNC(=O)ON=C(C)SC` [methomyl]: the water solubility is reported as 58000 ppm.

As for `CCN(Cc1ccc(Cl)nc1)/C(=C/[N+](=O)[O-])NC` [nitenpyram], the water solubility is on record as 590000 ppm.

Regarding `N#C/N=C1\SCCN1Cc1ccc(Cl)nc1` [thiacloprid], the water solubility is 185 ppm.

Consider `CN1COCN(Cc2cnc(Cl)s2)/C1=N\[N+](=O)[O-]` [thiamethoxam], for which the water solubility is listed as 4100 ppm.

The same series, now with this note: 25° C.
Take `C/C(=N\C#N)N(C)Cc1ccc(Cl)nc1` [acetamiprid]: the water solubility is 4250 ppm.
